In patent US20220363671A1, “GLUE DEGRADERS AND METHODS OF USE THEREOF” (NOVARTIS AG, priority 2019, published 2022):

Assays:
Format in all cases: cell-based
IKZF1 = target: T1, IKZF1 (Homo sapiens, UniProt Q13422+Q96SW2); experiment: Prolabel quantification of IKZF1 protein levels in GripTite 293 MSR cell line; conditions: Pro-label assay; for DC50: Ikaros degradation, read-out: IKZF1 EC50; for percent IKZF1 protein reduction at 10 µM: 24 h
T1 construct: expressed in transfected cells
Excerpt: (§1) Example 18: Prolabel Quantification of IKZF1, GSPT1, or SALL4 protein levels in GripTite™ 293 MSR Cell line
(§2) The Prolabel system from DiscoverX was used to develop high-throughput and quantitative assays to measure changes in IKZF1, GSPT1, and SALL4 protein levels in response to compounds. The prolabel tag is derived from the alpha fragment of beta galactosidase and has the following protein sequence: mssnslavvlgrrdwenpgvtglnrlaahppfaswrnseeartdrpsqqlrsinge (SEQ ID NO. 1). The complementary fragment of beta-galactosidase (from DiscoverX), is added to the prolabel tag to form an active beta galactosidase enzyme whose activity can be precisely measured. In this way, the levels of a fusion protein with the prolabel tag can be quantified in cell lysates.
(§3) Lentiviral vectors, based on the Invitrogen pLenti6.2/V5 DEST backbone, were constructed that placed the prolabel tag upstream of IKZF1, GSPT1, or SALL4 and expressed the fusion protein from a CMV promoter.
(§4) To ensure moderate and consistent expression of the prolabel fusion proteins across all cells in the population, stable cell lines were constructed from cells expressing a single copy of the construct. Lentivirus packaged with the constructs was made using the Virapower kit from Invitrogen. Strongly adherent 293GT cell, GripTite 293 MSR cells from Thermo Fisher Scientific (Catalog number: R79507), were infected with the virus at low multiplicity of infection and selected by 5 μg/mL blasticidin for 2 weeks.
(§5) The levels of prolabel tagged fusion proteins in compound treated cell lines were measured as follows:
(§6) Day 1, Cells were diluted to 1.0×10^6 cells/mL in normal growth medium. 17.5 μL of cells were plated in each well of a solid white 384 well plate. Plates were incubated overnight in a 37° C. tissue culture incubator.
(§7) Day 2, Serial dilutions of compounds were made in 384 well plates from 10 mM stocks. 15 μL of DMSO was added to each well of a 384 well plate. In the first column, 15 μL of stock compound was added. The solution was mixed and 15 μL was transferred to the next column. This was repeated until 20 two-fold dilutions were prepared. 2.5 μL of the diluted compounds were transferred into 60 μL of cell culture medium in another 384 well plate, and mixed well. 2.5 μL of this mixture was added to the plated cells. The final DMSO concentration was 0.5% and the highest concentration of compound was 50 μM. Plates were incubated overnight (e.g., about 14 h, 18 h, or 24 h) in a 37° C. tissue culture incubator.
(§8) Day 3, Plates were removed from the incubator and allowed to equilibrate at room temperature for 30 minutes. Prolabel substrate (DiscoverX PathHunter Prolabel Detection Kit, User manual: 93-0180) was added as described by the manufacturers protocols. Plates were incubated at room temperature for three hours and luminescence was read using an Envision reader (Perkin Elmer) Data was analyzed and visualized using the Spotfire software package.

GSPT1 = target: T2, GSPT1 (Homo sapiens, UniProt P15170+Q96SW2); experiment: Prolabel quantification of GSPT1 protein levels in GripTite 293 MSR cell line; conditions: Pro-label assay; for DC50: GSPT1 degradation, read-out: GSPT1 EC50
T2 construct: expressed in transfected cells
T2 sequence (P15170 whole entry, species assumed): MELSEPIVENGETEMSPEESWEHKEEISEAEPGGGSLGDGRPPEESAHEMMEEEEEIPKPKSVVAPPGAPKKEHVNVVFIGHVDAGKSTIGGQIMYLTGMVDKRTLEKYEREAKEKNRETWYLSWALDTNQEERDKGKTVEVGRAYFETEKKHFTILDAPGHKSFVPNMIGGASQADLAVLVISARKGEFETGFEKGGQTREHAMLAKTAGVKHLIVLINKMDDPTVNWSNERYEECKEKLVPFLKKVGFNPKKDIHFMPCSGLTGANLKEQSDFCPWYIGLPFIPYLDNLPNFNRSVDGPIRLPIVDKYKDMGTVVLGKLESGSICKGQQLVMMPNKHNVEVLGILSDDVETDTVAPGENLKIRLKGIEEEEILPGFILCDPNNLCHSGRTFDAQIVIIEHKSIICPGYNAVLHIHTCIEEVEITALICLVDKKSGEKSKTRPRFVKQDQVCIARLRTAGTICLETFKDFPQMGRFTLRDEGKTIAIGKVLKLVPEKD
T2 sequence (Q96SW2 whole entry, species assumed): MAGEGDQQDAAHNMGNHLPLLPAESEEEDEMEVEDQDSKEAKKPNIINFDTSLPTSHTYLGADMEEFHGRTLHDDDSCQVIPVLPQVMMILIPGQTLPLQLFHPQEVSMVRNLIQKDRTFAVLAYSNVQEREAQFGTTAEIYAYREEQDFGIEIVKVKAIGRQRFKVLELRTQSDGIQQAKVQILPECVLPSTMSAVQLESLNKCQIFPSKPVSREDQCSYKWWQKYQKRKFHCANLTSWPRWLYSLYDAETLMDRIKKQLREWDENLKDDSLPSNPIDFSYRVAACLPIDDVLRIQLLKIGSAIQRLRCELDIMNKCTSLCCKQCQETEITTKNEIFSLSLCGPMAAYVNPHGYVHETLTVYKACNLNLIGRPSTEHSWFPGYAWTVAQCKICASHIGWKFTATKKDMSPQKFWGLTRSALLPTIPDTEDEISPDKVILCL
T2 sequence (Q16531 whole entry partner, species assumed): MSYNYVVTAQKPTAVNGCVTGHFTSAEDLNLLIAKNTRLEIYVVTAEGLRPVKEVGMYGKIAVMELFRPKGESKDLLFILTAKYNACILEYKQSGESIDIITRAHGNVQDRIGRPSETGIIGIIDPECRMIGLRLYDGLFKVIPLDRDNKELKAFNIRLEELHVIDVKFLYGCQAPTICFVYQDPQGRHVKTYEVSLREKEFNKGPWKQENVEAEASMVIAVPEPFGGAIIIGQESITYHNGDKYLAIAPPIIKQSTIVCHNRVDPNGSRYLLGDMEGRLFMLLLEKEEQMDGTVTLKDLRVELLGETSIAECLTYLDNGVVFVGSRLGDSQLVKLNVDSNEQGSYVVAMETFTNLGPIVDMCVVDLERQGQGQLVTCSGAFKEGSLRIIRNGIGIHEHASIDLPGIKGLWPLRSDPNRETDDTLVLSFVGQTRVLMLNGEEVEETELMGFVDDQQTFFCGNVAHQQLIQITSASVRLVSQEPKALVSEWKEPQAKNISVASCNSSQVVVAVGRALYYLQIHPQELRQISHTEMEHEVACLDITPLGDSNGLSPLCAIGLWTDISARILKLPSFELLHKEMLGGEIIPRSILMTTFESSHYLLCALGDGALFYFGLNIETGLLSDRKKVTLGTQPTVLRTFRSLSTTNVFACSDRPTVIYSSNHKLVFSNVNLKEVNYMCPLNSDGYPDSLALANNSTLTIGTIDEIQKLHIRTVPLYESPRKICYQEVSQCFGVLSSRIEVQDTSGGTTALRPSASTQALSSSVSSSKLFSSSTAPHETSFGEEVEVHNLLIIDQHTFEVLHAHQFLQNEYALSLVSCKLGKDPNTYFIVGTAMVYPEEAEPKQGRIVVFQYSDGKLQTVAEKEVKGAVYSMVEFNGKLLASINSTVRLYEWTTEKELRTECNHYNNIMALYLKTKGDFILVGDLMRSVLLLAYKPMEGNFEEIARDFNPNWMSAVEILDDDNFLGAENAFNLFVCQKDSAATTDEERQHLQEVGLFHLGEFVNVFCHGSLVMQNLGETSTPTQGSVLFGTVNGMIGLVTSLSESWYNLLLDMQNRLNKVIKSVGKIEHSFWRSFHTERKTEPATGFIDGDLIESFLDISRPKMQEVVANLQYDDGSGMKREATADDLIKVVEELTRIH
Excerpt: as §1, §2, §3, §4, §5, §6, §7
as §8, with “Prolabel substrate (DiscoverX PathHunter Prolabel Detection Kit, User manual: 93-0180) was added as described by the manufacturers protocols.” left out

SALL4 = target: T3, SALL4 (Homo sapiens, UniProt Q96SW2+Q9UJQ4); experiment: Prolabel quantification of SALL4 protein levels in GripTite 293 MSR cell line; conditions: Pro-label assay
T3 construct: expressed in transfected cells
T3 sequence (Q9UJQ4 whole entry, species assumed): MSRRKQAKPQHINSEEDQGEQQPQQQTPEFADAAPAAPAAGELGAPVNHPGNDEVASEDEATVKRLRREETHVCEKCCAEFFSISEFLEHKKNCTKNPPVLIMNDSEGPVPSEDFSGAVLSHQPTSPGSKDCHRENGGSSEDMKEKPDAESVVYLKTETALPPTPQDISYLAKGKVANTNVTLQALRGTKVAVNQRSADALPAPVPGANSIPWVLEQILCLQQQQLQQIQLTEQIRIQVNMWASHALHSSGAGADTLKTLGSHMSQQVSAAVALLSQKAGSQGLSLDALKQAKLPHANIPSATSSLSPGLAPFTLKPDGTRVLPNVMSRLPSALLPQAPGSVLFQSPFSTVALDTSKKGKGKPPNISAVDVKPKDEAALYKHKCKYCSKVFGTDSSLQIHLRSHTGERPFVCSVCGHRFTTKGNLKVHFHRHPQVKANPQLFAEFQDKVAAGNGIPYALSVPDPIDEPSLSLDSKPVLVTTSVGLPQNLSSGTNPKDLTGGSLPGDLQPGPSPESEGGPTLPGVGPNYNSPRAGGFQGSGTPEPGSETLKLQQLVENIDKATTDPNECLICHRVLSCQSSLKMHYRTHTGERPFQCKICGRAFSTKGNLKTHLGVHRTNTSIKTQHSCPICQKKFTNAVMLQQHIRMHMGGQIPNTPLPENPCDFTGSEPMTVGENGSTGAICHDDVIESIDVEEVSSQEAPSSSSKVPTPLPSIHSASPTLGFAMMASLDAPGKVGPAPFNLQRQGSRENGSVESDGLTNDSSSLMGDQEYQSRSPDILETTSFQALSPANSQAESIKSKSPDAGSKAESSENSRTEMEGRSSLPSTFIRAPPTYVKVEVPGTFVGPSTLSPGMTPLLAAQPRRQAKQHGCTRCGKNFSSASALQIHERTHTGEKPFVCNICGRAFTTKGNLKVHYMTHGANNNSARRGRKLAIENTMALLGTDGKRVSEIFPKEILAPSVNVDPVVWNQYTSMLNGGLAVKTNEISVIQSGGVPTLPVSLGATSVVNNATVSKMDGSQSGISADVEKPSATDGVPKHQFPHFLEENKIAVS
T3 sequence (Q96SW2 whole entry, species assumed): as the sequence (Q96SW2 whole entry, species assumed) above
T3 sequence (Q16531 whole entry partner, species assumed): as the sequence (Q16531 whole entry partner, species assumed) above
Excerpt: as §1, §2
Lentiviral vectors, based on the Invitrogen pLenti6.2/V5 DEST backbone, were constructed that placed the prolabel tag upstream of IKZF1, GSPT1, or SALL4 and expressed the fusion protein from a CMV promoter. […]
The levels of prolabel tagged fusion proteins in compound treated cell lines were measured as follows: […]
as §8, with “Prolabel substrate (DiscoverX PathHunter Prolabel Detection Kit, User manual: 93-0180) was added as described by the manufacturers protocols.” left out

T1 sequence (Q13422 whole entry, species assumed): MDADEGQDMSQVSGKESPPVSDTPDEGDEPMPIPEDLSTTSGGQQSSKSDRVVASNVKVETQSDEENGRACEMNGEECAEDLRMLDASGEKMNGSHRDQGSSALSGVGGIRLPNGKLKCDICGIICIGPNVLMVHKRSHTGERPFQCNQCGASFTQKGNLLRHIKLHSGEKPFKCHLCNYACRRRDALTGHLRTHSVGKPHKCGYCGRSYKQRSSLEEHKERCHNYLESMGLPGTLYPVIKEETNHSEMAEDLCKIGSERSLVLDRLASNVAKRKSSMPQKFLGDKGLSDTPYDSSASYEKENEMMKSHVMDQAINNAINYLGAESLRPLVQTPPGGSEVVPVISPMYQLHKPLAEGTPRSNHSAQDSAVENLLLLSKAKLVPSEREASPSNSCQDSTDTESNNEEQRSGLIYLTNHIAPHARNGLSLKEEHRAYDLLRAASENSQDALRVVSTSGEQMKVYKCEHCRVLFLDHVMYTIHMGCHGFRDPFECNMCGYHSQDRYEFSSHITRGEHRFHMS
T1 sequence (Q96SW2 whole entry, species assumed): as the sequence (Q96SW2 whole entry, species assumed) above
T1 sequence (Q16531 whole entry partner, species assumed): as the sequence (Q16531 whole entry partner, species assumed) above

SMILES | DC50 (IKZF1) [µM] | percent IKZF1 protein reduction at 10 µM (IKZF1) [%] | GSPT1 % protein reduction at 10 μM, 24 h (GSPT1) [%] | DC50 (GSPT1) [µM] | SALL4 % protein Reduction at 10 μM, 24 h (SALL4) [%]
O=C1CCN(c2coc3cc(C(=O)NCc4ccccc4)ccc23)C(=O)N1 [Compound I-12, N-benzyl-3-(2,4-dioxotetrahydropyrimidin-1(2H)-yl)benzofuran-6-carboxamide] | > 20 |  |  |  | 
CN(C)CC#Cc1ccc2c(N3CCC(=O)NC3=O)coc2c1 [Compound I-11, 1-(6-(3-(dimethylamino)prop-1-yn-1-yl)benzofuran-3-yl)dihydropyrimidine-2,4(1H,3H)-dione] | 0.046 | > 90 |  |  | 
Cc1ccc2occ(N3CCC(=O)NC3=O)c2c1 [Compound I-3, 1-(5-Methylbenzofuran-3-yl)dihydropyrimidine-2,4(1H,3H)-dione] | 0.016 | > 90 |  |  | 
Cc1ccc(CCOc2ccc3c(N4CCC(=O)NC4=O)noc3c2)cc1 [Compound I-15, 1-(6-(4-Methylphenethoxy)benzo[d]isoxazol-3-yl)dihydropyrimidine-2,4(1H,3H)-dione] | 0.63 | 80 |  |  | 
O=C1CCN(c2coc3ccccc23)C(=O)N1 [Compound I-1, 1-(Benzofuran-3-yl)dihydropyrimidine-2,4(1H,3H)-dione] | 0.057 | 75 |  |  | 
O=C1CCN(c2coc3ccc(NC(=O)Oc4ccccc4)cc23)C(=O)N1 [Compound I-6, Phenyl (3-(2,4-dioxotetrahydropyrimidin-1(2H)-yl)benzofuran-5-yl)carbamate] | 0.12 | 75 |  |  | 
O=c1ccn(-c2cnc3cc(C4=CCN(Cc5ccccc5)CC4)ccn23)c(=O)[nH]1 [Compound I-17, 1-(7-(1-Benzyl-1,2,3,6-tetrahydropyridin-4-yl)imidazo[1,2-a]pyridin-3-yl)pyrimidine-2,4(1H,3H)-dione] | 0.43 | 80 |  |  | 
Cc1ccc2c(N3CCC(=O)NC3=O)noc2c1 [Compound I-13, 1-(6-Methylbenzo[d]isoxazol-3-yl)dihydropyrimidine-2,4(1H,3H)-dione] | 0.006 | > 90 |  |  | 
O=C1CCN(c2noc3ccc(Cl)cc23)C(=O)N1 [Compound I-14, 1-(5-Chlorobenzo[d]isoxazol-3-yl)dihydropyrimidine-2,4(1H,3H)-dione] | 0.025 | > 90 |  |  | 
O=C1CCN(c2coc3ccc(I)cc23)C(=O)N1 [Compound I-4, 1-(5-Iodobenzofuran-3-yl)dihydropyrimidine-2,4(1H,3H)-dione] | 0.051 | 60 |  |  | 
O=C1CCN(c2cnc3cc(C4=CCN(Cc5ccccc5)CC4)ccn23)C(=O)N1 [Compound I-8, 1-(7-(1-Benzyl-1,2,3,6-tetrahydropyridin-4-yl)imidazo[1,2-a]pyridin-3-yl)dihydropyrimidine-2,4(1H,3H)-dione] | 0.041 | > 90 |  |  | 
O=C1CCN(c2coc3cc(I)ccc23)C(=O)N1 [Compound I-5, 1-(6-Iodobenzofuran-3-yl)dihydropyrimidine-2,4(1H,3H)-dione] | 0.13 | > 90 |  |  | 60

Second part, the compound after the results:

DC50 (IKZF1) [µM] | percent IKZF1 protein reduction at 10 µM (IKZF1) [%] | GSPT1 % protein reduction at 10 μM, 24 h (GSPT1) [%] | DC50 (GSPT1) [µM] | SALL4 % protein Reduction at 10 μM, 24 h (SALL4) [%] | SMILES
 |  | 80 | 0.17 |  | CC(C)(C)c1ccc(C(=O)N2CC=C(c3ccn4c(N5CCC(=O)NC5=O)cnc4c3)CC2)cc1 [Compound I-9, 1-(7-(1-(4-(tert-Butyl)benzoyl)-1,2,3,6-tetrahydropyridin-4-yl)imidazo[1,2-a]pyridin-3-yl)dihydropyrimidine-2,4(1H,3H)-dione]
> 20 |  |  |  |  | O=c1ccn(-c2cnc3ccc(C4CCN(Cc5ccccc5)CC4)cc3c2)c(=O)[nH]1 [Compound I-16, 1-(6-(1-benzylpiperidin-4-yl)quinolin-3-yl)pyrimidine-2,4(1H,3H)-dione]
0.06 | > 90 |  |  |  | C#Cc1ccc2c(N3CCC(=O)NC3=O)coc2c1 [Compound I-2, 1-(6-Ethynylbenzofuran-3-yl)dihydropyrimidine-2,4(1H,3H)-dione]
0.006 | > 90 |  |  |  | O=C1CCN(c2cnn3cc(Cl)ccc23)C(=O)N1 [Compound I-7, 1-(6-Chloropyrazolo[1,5-a]pyridin-3-yl)dihydropyrimidine-2,4(1H,3H)-dione]
 | 40 |  |  |  | O=c1ccn(-c2cnc3cc(Br)ccn23)c(=O)[nH]1 [Compound I-18, 1-(7-Bromoimidazo[1,2-a]pyridin-3-yl)pyrimidine-2,4(1H,3H)-dione]
 |  | 80 | 0.17 | 60 | O=C1CCN(c2cnc3ccc(C4CCN(Cc5ccccc5)CC4)cn23)C(=O)N1 [Compound I-10, 1-(6-(1-Benzylpiperidin-4-yl)imidazo[1,2-a]pyridin-3-yl)dihydropyrimidine-2,4(1H,3H)-dione]
